Source: patent publication US8329656B2, “Use of a PDE5 inhibitor for treating and preventing hypopigmentary disorders” (Switch Biotech AG, priority 2004, dated 2012)
“Also recorded” adds a separate entry of the source.

Tested on: human melanoma cell line (Mel-Ho)
Assay: Melanocyte dendrite outgrowth assay
Format: cell-based
Conditions: Mel-Ho cells; for induction of melanocyte dendricity (in words): different concentrations, 24 hours
From the text: A possibility to test the effect of a compound on melanocyte function as a measure for pigmentation, the melanocyte dendrite outgrowth assay can be performed. Vitiligo melanocytes for example have only stubby dendrites. Increasing dendricity as a prerequisite for the transfer of the melanosomes from melanocytes to the surrounding keratinocytes rescues this defect. For this assay, cells from a human melanoma cell line (Mel-Ho) were obtained from DSMZ (Deutsche Sammlung für Mikroorganismen and Zellkulturen) and were cultured according to the protocol provided by DSMZ. In short, after thawing the melanocytes were cultured in T-75 flasks in melanocyte culture media (provided by the manufacturer) until they reach 70-80% confluency. The melanocytes were then trypsinized, transferred into 5-10 new T-75 flasks, and grown again to same confluency as described above. After this expansion step the melanocytes were immediately used for the Melanocyte Dendrite Outgrowth Assay or were frozen for later use. For the assay, the melanocytes were seeded in 24 well plates at a density of 1-5×10^4 cells/well. After 24 hours, the melanocytes were treated with 100 μM IBMX (Sigma-Aldrich) or different concentrations of Sildenafil and Tadalafil for 24 hours. IBMX (=3-isobutyl-1-methylxanthin) is known to cause increased melanocyte dendricity and was used as a positive control. Cells treated with media only were used as a negative control. Melanocyte dendrite outgrowth was documented by digital photography (Canon G2 Powershot) after 3, 6 and 24 hours. In addition, melanocyte dendricity was scored by 3 blinded individuals after 24 hours. The score ranges from 1 to 4; 1 representing melanocytes with no dendrites and 4 representing melanocytes with many long and branched dendrites. […] 10 μM Sildenafil was used to obtain an score of >3, however also lower concentrations (down to 10 nM) of Sildenafil was sufficient to induce dendrite formation. The experiment was performed as described in Example 1, however using Tadalafil as active component.

| SMILES | induction of melanocyte dendricity (in words) | concentration sufficient to induce dendrite formation (lower concentrations than 10 μM) |
| --- | --- | --- |
| CCCc1nn(C)c2c(=O)[nH]c(-c3cc(S(=O)(=O)N4CCN(C)CC4)ccc3OCC)nc12 [Sildenafil, 5-[2-Ethoxy-5-(4-methyl-1-piperazinylsulfonyl)phenyl]-1-methyl-3-n-propyl-1,6-dihydro-7H-pyrazolo[4,3-d]pyrimidin-7-one] | strongly increased dendricity | ≥ 10 nM |
| CN1CC(=O)N2C(Cc3c([nH]c4ccccc34)[C@H]2c2ccc3c(c2)OCO3)C1=O (stereo partly drawn) [Tadalafil, (6R,12aR)-2,3,6,7,12,12a-hexahydro-2-methyl-6-(3,4-methylenedioxyphenyl)pyrazino[1′,2′:1,6]pyrido[3,4-b]indole-1,4-dione] | very similar to the results obtained with Sildenafil; also recorded: effectively induces dendricity; also recorded: strongly increased dendricity | – |
